Data published in the supplement of paper PMC10307832.

What was measured:
Experiment in all cases: relative viability (nuclei count vs DMSO), 5 days (fraction); higher = more cells survive
201T = tested on: 201T
Outline: (§1)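 Relative viability divides the nuclei count in treated wells by that in vehicle wells. Lung cancer cell lines were seeded in 1536-well plates, dosed by pin tool the next day, and fixed and stained after 5 days in one step with final 0.05% Triton X-100, 1% formaldehyde and 1 ug/ml Hoechst. Dosing was a single drug or a fixed anchor-drug dose plus five library-drug doses (not always all listed) in √10 steps, and values are medians of duplicate plates imaged at 4×.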

BEN = tested on: BEN
Outline: as §1

HCC-78 = tested on: HCC-78
Outline: as §1

HOP-62 = tested on: HOP-62
Outline: as §1

LCLC-97TM1 = tested on: LCLC-97TM1
Outline: as §1

LOU-NH91 = tested on: LOU-NH91
Outline: as §1

NCI-H1355 = tested on: NCI-H1355
Outline: as §1

NCI-H1395 = tested on: NCI-H1395
Outline: as §1

NCI-H1651 = tested on: NCI-H1651
Outline: as §1

NCI-H1793 = tested on: NCI-H1793
Outline: as §1

NCI-H1915 = tested on: NCI-H1915
Outline: as §1

NCI-H1944 = tested on: NCI-H1944
Outline: as §1

NCI-H2126 = tested on: NCI-H2126
Outline: as §1

NCI-H2347 = tested on: NCI-H2347
Outline: as §1

NCI-H3122 = tested on: NCI-H3122
Outline: as §1

NCI-H322M = tested on: NCI-H322M
Outline: as §1

NCI-H441 = tested on: NCI-H441
Outline: as §1

NCI-H650 = tested on: NCI-H650
Outline: as §1

NCI-H838 = tested on: NCI-H838
Outline: as §1

SK-LU-1 = tested on: SK-LU-1
Outline: as §1

SW 1573 = tested on: SW 1573
Outline: as §1

CN1CCN(CCOc2cc(OC3CCOCC3)c3c(Nc4c(Cl)ccc5c4OCO5)ncnc3c2)CC1 [Saracatinib] + Nc1ncn([C@H]2C[C@H](O)[C@@H](CO)O2)c(=O)n1 [Decitabine] (partner 2 µM)
relative viability (201T; first compound 0.02 µM): 0.832
relative viability (201T; first compound 0.2 µM): 0.644
relative viability (201T; first compound 0.6325 µM): 0.75
relative viability (201T; first compound 2 µM): 0.71
relative viability (BEN; first compound 0.02 µM): 0.834
relative viability (BEN; first compound 0.2 µM): 0.778
relative viability (BEN; first compound 0.6325 µM): 0.747
relative viability (BEN; first compound 2 µM): 0.628
relative viability (HCC-78; first compound 0.02 µM): 0.524
relative viability (HCC-78; first compound 0.6325 µM): 0.736
relative viability (HCC-78; first compound 2 µM): 0.686
relative viability (HOP-62; first compound 0.02 µM): 0.222
relative viability (HOP-62; first compound 0.2 µM): 0.188
relative viability (HOP-62; first compound 0.6325 µM): 0.197
relative viability (HOP-62; first compound 2 µM): 0.185
relative viability (LCLC-97TM1; first compound 0.02 µM): 0.244
relative viability (LCLC-97TM1; first compound 0.2 µM): 0.18
relative viability (LCLC-97TM1; first compound 0.6325 µM): 0.215
relative viability (LCLC-97TM1; first compound 2 µM): 0.178
relative viability (LOU-NH91; first compound 0.02 µM): 0.778
relative viability (LOU-NH91; first compound 0.2 µM): 0.665
relative viability (LOU-NH91; first compound 0.6325 µM): 0.715
relative viability (LOU-NH91; first compound 2 µM): 0.641
relative viability (NCI-H1355; first compound 0.02 µM): 0.345
relative viability (NCI-H1355; first compound 0.2 µM): 0.35
relative viability (NCI-H1355; first compound 0.6325 µM): 0.358
relative viability (NCI-H1355; first compound 2 µM): 0.354
relative viability (NCI-H1395; first compound 0.02 µM): 0.752
relative viability (NCI-H1395; first compound 0.2 µM): 0.753
relative viability (NCI-H1395; first compound 0.6325 µM): 0.737
relative viability (NCI-H1395; first compound 2 µM): 0.635
relative viability (NCI-H1651; first compound 0.02 µM): 0.734
relative viability (NCI-H1651; first compound 0.2 µM): 0.375
relative viability (NCI-H1651; first compound 0.6325 µM): 0.667
relative viability (NCI-H1651; first compound 2 µM): 0.626
relative viability (NCI-H1793; first compound 0.02 µM): 0.543
relative viability (NCI-H1793; first compound 0.2 µM): 0.338
relative viability (NCI-H1793; first compound 0.6325 µM): 0.504
relative viability (NCI-H1793; first compound 2 µM): 0.403
relative viability (NCI-H1915; first compound 0.02 µM): 0.245
relative viability (NCI-H1915; first compound 0.2 µM): 0.264
relative viability (NCI-H1915; first compound 0.6325 µM): 0.255
relative viability (NCI-H1915; first compound 2 µM): 0.237
relative viability (NCI-H1944; first compound 0.02 µM): 0.423
relative viability (NCI-H1944; first compound 0.2 µM): 0.356
relative viability (NCI-H1944; first compound 0.6325 µM): 0.434
relative viability (NCI-H1944; first compound 2 µM): 0.371
relative viability (NCI-H2126; first compound 0.02 µM): 0.61
relative viability (NCI-H2126; first compound 0.2 µM): 0.567
relative viability (NCI-H2126; first compound 0.6325 µM): 0.551
relative viability (NCI-H2126; first compound 2 µM): 0.454
relative viability (NCI-H2347; first compound 0.02 µM): 0.629
relative viability (NCI-H2347; first compound 0.2 µM): 0.538
relative viability (NCI-H2347; first compound 0.6325 µM): 0.595
relative viability (NCI-H2347; first compound 2 µM): 0.578
relative viability (NCI-H3122; first compound 0.02 µM): 0.365
relative viability (NCI-H3122; first compound 0.2 µM): 0.375
relative viability (NCI-H3122; first compound 0.6325 µM): 0.314
relative viability (NCI-H3122; first compound 2 µM): 0.294
relative viability (NCI-H322M; first compound 0.02 µM): 0.79
relative viability (NCI-H322M; first compound 0.2 µM): 0.473
relative viability (NCI-H322M; first compound 0.6325 µM): 0.659
relative viability (NCI-H322M; first compound 2 µM): 0.409
relative viability (NCI-H441; first compound 0.02 µM): 0.221
relative viability (NCI-H441; first compound 0.2 µM): 0.232
relative viability (NCI-H441; first compound 0.6325 µM): 0.212
relative viability (NCI-H441; first compound 2 µM): 0.243
relative viability (NCI-H650; first compound 0.02 µM): 0.319
relative viability (NCI-H650; first compound 0.2 µM): 0.3
relative viability (NCI-H650; first compound 0.6325 µM): 0.295
relative viability (NCI-H650; first compound 2 µM): 0.288
relative viability (NCI-H838; first compound 0.02 µM): 0.45
relative viability (NCI-H838; first compound 0.2 µM): 0.417
relative viability (NCI-H838; first compound 0.6325 µM): 0.467
relative viability (NCI-H838; first compound 2 µM): 0.411
relative viability (SK-LU-1; first compound 0.02 µM): 0.546
relative viability (SK-LU-1; first compound 0.2 µM): 0.526
relative viability (SK-LU-1; first compound 0.6325 µM): 0.594
relative viability (SK-LU-1; first compound 2 µM): 0.405
relative viability (SW 1573; first compound 0.02 µM): 0.512
relative viability (SW 1573; first compound 0.2 µM): 0.481
relative viability (SW 1573; first compound 0.6325 µM): 0.458
relative viability (SW 1573; first compound 2 µM): 0.434
